PubChem BioAssay (NCI)
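Following 48 hours of exposure in 96-well plates, responses at five concentrations were used to interpolate endpoints linearly. The concentration for full growth arrest is given as TGI.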

System: COLO 205 colon
Experiment: DTP human tumour cell line panel, 48 h

Row | SMILES | TGI
1 | C=C1CCC23CC(CC[C@@H]2[C@@]12C[C@@H](c1ccoc1)OC2=O)OC3=O (stereo partly specified) | > 100 µM
2 | CC(=O)OCCOCn1cnc2c(Cl)nc(Cl)nc21 | 38.1 µM
3 | CNC(=O)N1CN(c2ccccc2)C2(CCN(CCCC3(c4ccc(F)cc4)OCCO3)CC2)C1=O | > 100 µM
4 | O=C(Cc1ccccc1)N/N=C/c1ccccc1O | > 100 µM
5 | COc1ccc(N2C(=O)c3cc(C)cnc3S2(=O)=O)cc1 | > 100 µM
6 | CC1(C)CC(=O)C(/C=N/c2nc(-c3ccccc3)cs2)=C(O)C1 | > 100 µM
7 | CCN(CC)CC(=O)O[C@]1(CC)C(=O)OCc2c1cc1n(c2=O)Cc2cc3ccccc3nc2-1 | 3.22 µM
8 | COc1ccc(-c2cc(=O)c3ccccc3[nH]2)c(OC)c1 | > 100 µM
9 | C/C=C(/C)C(=O)O[C@H]1C[C@@H]2[C@@H](O)c3occ(C)c3C[C@]2(C)[C@@H](C)C1 | 30.2 µM
10 | Cc1ccc(-c2c3nc(c(-c4ccc(C)cc4)c4ccc([nH]4)c(-c4ccc(OCC5COC(C)(C)O5)cc4)c4nc(c(-c5ccc(C)cc5)c5ccc2[nH]5)C=C4)C=C3)cc1 (stereo unspecified) | > 31.6 µM
11 | CC(=NNC(=S)Nc1ccc(C)cc1)c1cccc(C(C)=NNC(=S)Nc2ccc(C)cc2)n1 | 43.8 µM
12 | N#Cc1c(-c2ccccc2)cc(Nc2cccc(C(F)(F)F)c2)n2c1nc1ccccc12 | 2.39 µM
13 | COc1ccc(O)c(/C(C)=N/NC(=S)N(C)C)c1 | > 100 µM
14 | c1ccc(CSP234N5CCN2CCN3CCN4CC5)c(CSP234N5CCN2CCN3CCN4CC5)c1 | 47.3 µM
15 | c1csc(-c2cc(-c3cccs3)c(-c3ccsc3)s2)c1 | > 100 µM
16 | Cc1ccc(S(=O)(=O)OC(c2ccc(Cl)cc2Cl)C2OC(=O)c3ccccc32)cc1 (stereo unspecified) | > 100 µM
17 | CN1C2CCC1CC(CCNC(c1ccccc1)c1ccccc1)C2 (stereo unspecified) | 23.6 µM
18 | O=C1NCCCNCCCNCCCNC(=O)c2cccc1n2 | > 100 µM
19 | O=C1O/C(=C(/Br)c2ccc(Cl)c(Cl)c2)c2ccccc21 | > 10 µM
20 | CSC1=N/C(=C\c2ccccc2)C(=O)N1CN1CCCCC1 | > 100 µM
21 | CCOC(=O)C(Cc1cn(S(=O)(=O)c2ccccc2)c2ccccc12)(NC(C)=O)C(=O)OCC | 60.8 µM

System: DU-145 prostate
Experiment: DTP human tumour cell line panel, 48 h

Row | SMILES | TGI
22 | Cc1ccc(N=Nc2c(C)c(C#N)c(=S)n(C3OC(CO)C(O)C(O)C3O)c2C)cc1 (stereo unspecified) | > 100 µM
23 | CC(=O)OCCOCn1cnc2c(Cl)nc(Cl)nc21 | 36.5 µM
24 | CNC(=O)N1CN(c2ccccc2)C2(CCN(CCCC3(c4ccc(F)cc4)OCCO3)CC2)C1=O | > 100 µM
25 | O=C(Cc1ccccc1)N/N=C/c1ccccc1O | > 100 µM
26 | COc1ccc(N2C(=O)c3cc(C)cnc3S2(=O)=O)cc1 | > 100 µM
27 | CC(C)=CC(=O)C[C@H]1C(=O)O[C@@H]2C[C@H]3C(C)=CC(=O)[C@@H](O)[C@]3(C)[C@H]3[C@@]4(O)OC[C@]32[C@@H]1[C@@H](C)[C@H]4O | 0.12 µM
28 | CC1(C)CC(=O)C(/C=N/c2nc(-c3ccccc3)cs2)=C(O)C1 | > 100 µM
29 | CCN(CC)CC(=O)O[C@]1(CC)C(=O)OCc2c1cc1n(c2=O)Cc2cc3ccccc3nc2-1 | 0.21 µM
30 | Cn1c(=O)c2[nH]c(CCCCC(=O)O)nc2n(C)c1=O | > 100 µM
31 | C/C=C(/C)C(=O)O[C@H]1C[C@@H]2[C@@H](O)c3occ(C)c3C[C@]2(C)[C@@H](C)C1 | 28.2 µM
32 | Cc1ccc(-c2c3nc(c(-c4ccc(C)cc4)c4ccc([nH]4)c(-c4ccc(OCC5COC(C)(C)O5)cc4)c4nc(c(-c5ccc(C)cc5)c5ccc2[nH]5)C=C4)C=C3)cc1 (stereo unspecified) | > 31.6 µM
33 | CC(=NNC(=S)Nc1ccc(C)cc1)c1cccc(C(C)=NNC(=S)Nc2ccc(C)cc2)n1 | > 100 µM
34 | N#Cc1c(-c2ccccc2)cc(Nc2cccc(C(F)(F)F)c2)n2c1nc1ccccc12 | 19.7 µM
35 | COc1ccc(O)c(/C(C)=N/NC(=S)N(C)C)c1 | > 100 µM
36 | c1ccc(CSP234N5CCN2CCN3CCN4CC5)c(CSP234N5CCN2CCN3CCN4CC5)c1 | > 100 µM
37 | c1csc(-c2cc(-c3cccs3)c(-c3ccsc3)s2)c1 | > 100 µM
38 | CN1C2CCC1CC(CCNC(c1ccccc1)c1ccccc1)C2 (stereo unspecified) | > 100 µM
39 | O=C1O/C(=C(/Br)c2ccc(Cl)c(Cl)c2)c2ccccc21 | > 10 µM
40 | CSC1=N/C(=C\c2ccccc2)C(=O)N1CN1CCCCC1 | > 100 µM

System: EKVX NSCLC
Experiment: DTP human tumour cell line panel, 48 h

Row | SMILES | TGI
41 | C=C(CC[C@@H](C)[C@H]1CC[C@@]2(C)C3=C(CC[C@]12C)[C@@]1(C)CC[C@H](O)[C@@H](C)C1CC3)C(C)C (stereo partly specified) | 2.42 µM
42 | C=C1CCC23CC(CC[C@@H]2[C@@]12C[C@@H](c1ccoc1)OC2=O)OC3=O (stereo partly specified) | > 100 µM
43 | CC(=O)OCCOCn1cnc2c(Cl)nc(Cl)nc21 | 7.83 µM
44 | CNC(=O)N1CN(c2ccccc2)C2(CCN(CCCC3(c4ccc(F)cc4)OCCO3)CC2)C1=O | > 100 µM
45 | O=C(Cc1ccccc1)N/N=C/c1ccccc1O | > 100 µM
46 | COc1ccc(N2C(=O)c3cc(C)cnc3S2(=O)=O)cc1 | > 100 µM
47 | CC(C)=CC(=O)C[C@H]1C(=O)O[C@@H]2C[C@H]3C(C)=CC(=O)[C@@H](O)[C@]3(C)[C@H]3[C@@]4(O)OC[C@]32[C@@H]1[C@@H](C)[C@H]4O | 4.25 µM
48 | CC1(C)CC(=O)C(/C=N/c2nc(-c3ccccc3)cs2)=C(O)C1 | > 100 µM
49 | CCN(CC)CC(=O)O[C@]1(CC)C(=O)OCc2c1cc1n(c2=O)Cc2cc3ccccc3nc2-1 | > 100 µM
50 | Cn1c(=O)c2[nH]c(CCCCC(=O)O)nc2n(C)c1=O | > 100 µM
51 | N#Cc1nc(C2=C(Cl)c3ccccc3OC2)[nH]c1C#N | > 100 µM
52 | COc1ccc(-c2cc(=O)c3ccccc3[nH]2)c(OC)c1 | > 100 µM
53 | C/C=C(/C)C(=O)O[C@H]1C[C@@H]2[C@@H](O)c3occ(C)c3C[C@]2(C)[C@@H](C)C1 | 30.5 µM
54 | Cc1ccc(-c2c3nc(c(-c4ccc(C)cc4)c4ccc([nH]4)c(-c4ccc(OCC5COC(C)(C)O5)cc4)c4nc(c(-c5ccc(C)cc5)c5ccc2[nH]5)C=C4)C=C3)cc1 (stereo unspecified) | > 31.6 µM
55 | CC(=NNC(=S)Nc1ccc(C)cc1)c1cccc(C(C)=NNC(=S)Nc2ccc(C)cc2)n1 | > 100 µM
56 | N#Cc1c(-c2ccccc2)cc(Nc2cccc(C(F)(F)F)c2)n2c1nc1ccccc12 | 10 µM
